“And” between values parts separate entries of the source, which are not always exact repeats. Identical values can stand only once.

For assay [1], the system named is mastocytoma P815-X2 cells. As to the kind of experiment: Adjuvant activity on the induction of cell-mediated cytotoxic cells in the spleen of allogenic mice (Brunner's method). It is filed as in vivo, C57BL/6J mice. The settings on record: phosphate buffered saline suspension, eleven days after. As for the experimental part: Adjuvant activity on the induction of cell-mediated cytotoxic cells in the spleen of allogenic mice (C57BL/6J).
Three or four mice of C57BL/6J in each group were immunized intraperitoneally with a mixture of mastocytoma P815-X2 cells (1 × 10^4) and a test material dissolved or suspended in phosphate buffered saline. Control group was immunized with mastocytoma P815-X2 cells alone.
Eleven days after, cell-mediated cytotoxicity was determined by Brunner's method (Immunology 18, 501-515 1970).

The subject of the next assay is Hartley guinea pigs. As to the kind of experiment: Adjuvant activity on the induction of delayed-type hypersensitivity to ABA-Tyr (skin test). It is filed as in vivo, guinea pig. The settings on record: with 50 μg ABA-Tyr in Freund's incomplete adjuvant, four footpads, skin test two weeks later, mm ± SE. As for the experimental part:
Adjuvant activity of the object compound on the induction of delayed-type hypersensitivity to ABA-Tyr.
Hartley guinea pigs were immunized into four footpads with 50 μg of N-acetyl-L-tyrosine-3-azobenzene-4'-arsonic acid (ABA-Tyr) in Freund's incomplete adjuvant with a test material dissolved or suspended in phosphate buffered saline. Control groups were immunized with ABA-Tyr alone in Freund's incomplete adjuvant.
Two weeks later, skin test with 100 μg of ABA-bacterial α-amylose (ABA-BαA) dissolved in saline was made and skin reaction was measured 24 hours after intradermal injection of test antigen.

Assay [2] has as its system MH134 hepatoma. As to the kind of experiment: Antitumor activity on the suppression of MH-134 hepatoma. It is filed as in vivo, C3H/He mice. The settings on record: intradermal, A = mice with tumor growth completely suppressed, B = tested mice. As for the experimental part: Antitumor activity on the suppression of MH-134 hepatoma in C3H/He mice
The antitumor activity of the compounds of this invention was examined by using MH134 hepatoma in syngeneic C3H/He mice. A mixture of tumor cells of MH134 (1 × 10^5) and materials (100 or 20 μg) dissolved or suspended in phosphate buffered saline and transplanted intradermally into C3H/He mice and the tumor growth was measured in inoculated sites.

For a further assay, the system named is melanoma B16. As to conditions: melanoma B16 in C57BL/6J; prior-art statement; cited from earlier work.
Assay [3] relates to mastocytoma P815-X2 cells. As to conditions: immunization with allogeneic antigen, mastocytoma P815-X2 cell in vivo; prior-art statement; cited from earlier work.
Assay [4] deals with MH134 hepatoma. The settings on record: MH134 hepatoma in C3H/He; prior-art statement; cited from earlier work.
The subject of the next assay is ovalmin protein antigen. The settings on record: increased serum antibody levels and induction of delayed-type hypersensitivity; prior-art statement; cited from earlier work.
[5] abbreviates: dose 10 μg/mice i.p. with P815-X2 cells (1 × 10^4).
[6] abbreviates: dose 100 μg/mice i.p. with P815-X2 cells (1 × 10^4).
Setting [7] is: dose 20 μg mixed with MH134 cells (1 × 10^5).
Setting [8] is: dose 100 μg mixed with MH134 cells (1 × 10^5).

Turning to “6-O-nocardomycoloyl-N-acetylmuramyl-L-alanyl-D-isoglutamine [Nocardo-L-Ala-D-isoGln]”, the “Specific Target Cell Lysis” value turned out to be 21.0 ± 7.6% in assay [1] (setting [5]) and 76.9 ± 3.2% in assay [1] (setting [6]). The “Skin reaction with 100μg of ABA-BαA at 24 hrs.” value (“Skin reaction with 100μg” below) is listed as 24.5 ± 0.7 mm in the assay on Hartley guinea pigs (dose 40 μg) and 23.0 ± 1.5 mm with Hartley guinea pigs (dose 400 μg). Besides, in the assay on MH134 hepatoma [2] (setting [7]), the “Antitumor Activity A/B Tumor Growth” value is 5/10.

Consider “6-O-corynomycoloyl-N-acetylmuramyl-L-alanyl-D-isoglutamine [Coryno-L-Ala-D-isoGln]”, for which the entries for the “Specific Target Cell Lysis” value in assay [1] (setting [5]) and in assay [1] (setting [6]) were 16.1 ± 5.0% and 28.8 ± 14.4%, respectively. The “Skin reaction with 100μg” value in the assay with Hartley guinea pigs (dose 30 μg) is 21.2 ± 1.9 mm; with Hartley guinea pigs (dose 300 μg), 22.0 ± 0.6 mm. In the assay with MH134 hepatoma [2] (setting [7]), the “Antitumor Activity A/B Tumor Growth” value is given as 6/10.

For the molecule `CCCCCCCCCCCCCCCCCC(=O)OCC1OC(O)C(NC(C)=O)C(OC(C)C(=O)NC(C)C(=O)NC(CCC(=O)O)C(N)=O)C1O` (stereo not drawn) [Stearoyl-muramyldipeptide, 6-O-stearoyl-muramyldipeptide, reference compound], the “antitumor activity on syngeneic mouse tumor system” value with melanoma B16 and in the assay on MH134 hepatoma [4] was “no antitumor activity” each time. Moreover, in assay [3], the “adjuvant activity in the generation of cell-mediated cytotoxic effector cells on the spleen” value is “no adjuvant activity”. Moreover, the “Specific Target Cell Lysis” value in assay [1] (setting [6]) is given as 4.2%. For the same molecule, the immunoadjuvant activity result in the assay on ovalmin protein antigen is listed as “immunological properties almost similar to those of muramyldipeptide”. In the assay on Hartley guinea pigs (dose 100 μg), the “Skin reaction with 100μg” value came out at 17.2 ± 1.2 mm. For the same molecule, the “Antitumor Activity A/B Tumor Growth” value with MH134 hepatoma [2] (setting [7]) and in the assay on MH134 hepatoma [2] (setting [8]) was 0/10 throughout.

For “6-O-mycomycoloyl-N-acetylmuramyl-glycyl-D-isoglutamine [Myco-Gly-D-isoGln]”, the entries for the “Specific Target Cell Lysis” value in assay [1] (setting [5]) and in assay [1] (setting [6]) were 39.3 ± 3.2% and 77.0 ± 4.0%, respectively. The “Skin reaction with 100μg” value in the assay on Hartley guinea pigs (dose 50 μg) amounted to 2.7 ± 0.7 mm; in the assay with Hartley guinea pigs (dose 500 μg), 15.3 ± 0.6 mm. The “Antitumor Activity A/B Tumor Growth” value with MH134 hepatoma [2] (setting [8]) was 7/10.

Consider “6-O-mycomycoloyl-N-acetylmuramyl-L-ser-D-isoglutamine [Myco-L-Ser-D-isoGln]”, for which the “Specific Target Cell Lysis” value in assay [1] (setting [5]) is 21.8 ± 15.2%; in assay [1] (setting [6]), 30.4 ± 14.0%. For the same molecule, the “Skin reaction with 100μg” value with Hartley guinea pigs (dose 50 μg) stood at 18.0 ± 0.6 mm; in the assay with Hartley guinea pigs (dose 500 μg) it was 15.0 ± 0.5 mm. Besides, the “Antitumor Activity A/B Tumor Growth” value with MH134 hepatoma [2] (setting [8]) is listed as 10/10.

Turning to “6-O-mycomycoloyl-N-acetylmuramyl-L-alanyl-D-isoglutamine [Myco-L-Ala-D-isoGln]”, the “Specific Target Cell Lysis” value in assay [1] (setting [5]) is given as 3.9%; in assay [1] (setting [6]) it was 69.7%. Moreover, the “Skin reaction with 100μg” value is 22.8 ± 0.6 mm and 12.8 ± 1.6 mm in the assay with Hartley guinea pigs (dose 50 μg); 20.9 ± 0.8 mm and 17.1 ± 0.5 mm with Hartley guinea pigs (dose 500 μg). Further, the “Antitumor Activity A/B Tumor Growth” value with MH134 hepatoma [2] (setting [8]) is given as 10/10.

Source of the values: US4101536A, “Muramyldipeptide derivatives and process for the preparation thereof” (Daiichi Seiyaku Co., Ltd., priority 1976, dated 1978).
